Assay results as given in the NIST ThermoML archive (doi:10.1021/je800635g).

Assay: xn = mol fraction of the nth substance listed
Settings: Liquid, Falling or rolling sphere viscometry

Cc1ccc(C)cc1 [1,4-dimethylbenzene] + CC(=O)O
viscosity [mPa·s]
Settings | x1 = 0.1001 | x1 = 0.1997 | x1 = 0.3001 | x1 = 0.3997 | x1 = 0.5 | x1 = 0.6002 | x1 = 0.6988 | x1 = 0.7994 | x1 = 0.8994
313.15 K, 100 kPa | 0.725 | 0.63 | 0.571 | 0.522 | 0.52 | 0.514 | 0.508 | 0.505 | 0.499
313.15 K, 800 kPa | 0.731 | 0.635 | 0.576 | 0.527 | 0.524 | 0.519 | 0.512 | 0.509 | 0.503
313.15 K, 1600 kPa | 0.737 | 0.641 | 0.583 | 0.532 | 0.53 | 0.524 | 0.517 | 0.514 | 0.508
313.15 K, 2400 kPa | 0.743 | 0.647 | 0.585 | 0.537 | 0.535 | 0.529 | 0.522 | 0.519 | 0.513
313.15 K, 3200 kPa | 0.749 | 0.653 | 0.591 | 0.543 | 0.541 | 0.534 | 0.527 | 0.525 | 0.518
333.15 K, 100 kPa | 0.587 | 0.508 | 0.459 | 0.424 | 0.419 | 0.418 | 0.415 | 0.412 | 0.407
333.15 K, 800 kPa | 0.592 | 0.514 | 0.464 | 0.429 | 0.424 | 0.423 | 0.419 | 0.416 | 0.411
333.15 K, 1600 kPa | 0.598 | 0.52 | 0.47 | 0.434 | 0.429 | 0.428 | 0.424 | 0.422 | 0.416
333.15 K, 2400 kPa | 0.605 | 0.526 | 0.476 | 0.44 | 0.435 | 0.433 | 0.429 | 0.427 | 0.421
333.15 K, 3200 kPa | 0.611 | 0.532 | 0.482 | 0.445 | 0.44 | 0.438 | 0.435 | 0.432 | 0.427
353.15 K, 100 kPa | 0.481 | 0.419 | 0.378 | 0.351 | 0.347 | 0.342 | 0.341 | 0.339 | 0.339
353.15 K, 800 kPa | 0.487 | 0.425 | 0.384 | 0.356 | 0.352 | 0.347 | 0.346 | 0.343 | 0.344
353.15 K, 1600 kPa | 0.493 | 0.431 | 0.39 | 0.361 | 0.357 | 0.352 | 0.351 | 0.349 | 0.349
353.15 K, 2400 kPa | 0.499 | 0.437 | 0.396 | 0.367 | 0.363 | 0.357 | 0.356 | 0.354 | 0.354
353.15 K, 3200 kPa | 0.505 | 0.444 | 0.402 | 0.372 | 0.368 | 0.363 | 0.361 | 0.359 | 0.359
373.15 K, 100 kPa | 0.399 | 0.353 | 0.314 | 0.297 | 0.293 | 0.289 | 0.287 | 0.285 | 0.288
373.15 K, 800 kPa | 0.405 | 0.359 | 0.319 | 0.302 | 0.298 | 0.293 | 0.291 | 0.289 | 0.293
373.15 K, 1600 kPa | 0.412 | 0.365 | 0.326 | 0.307 | 0.303 | 0.299 | 0.296 | 0.294 | 0.298
373.15 K, 2400 kPa | 0.418 | 0.372 | 0.332 | 0.313 | 0.309 | 0.304 | 0.302 | 0.3 | 0.303
373.15 K, 3200 kPa | 0.424 | 0.378 | 0.338 | 0.319 | 0.315 | 0.309 | 0.307 | 0.305 | 0.308
393.15 K, 800 kPa | 0.34 | 0.294 | 0.269 | 0.252 | 0.253 | 0.249 | 0.256 | 0.254 | 0.254
393.15 K, 1600 kPa | 0.345 | 0.3 | 0.275 | 0.258 | 0.258 | 0.254 | 0.261 | 0.258 | 0.259
393.15 K, 2400 kPa | 0.352 | 0.306 | 0.281 | 0.263 | 0.264 | 0.26 | 0.266 | 0.264 | 0.265
393.15 K, 3200 kPa | 0.358 | 0.313 | 0.287 | 0.269 | 0.27 | 0.265 | 0.272 | 0.27 | 0.27
413.15 K, 800 kPa | 0.294 | 0.255 | 0.237 | 0.221 | 0.217 | 0.218 | 0.222 | 0.219 | 0.22
413.15 K, 1600 kPa | 0.3 | 0.26 | 0.243 | 0.227 | 0.217 | 0.223 | 0.227 | 0.225 | 0.225
413.15 K, 2400 kPa | 0.307 | 0.265 | 0.249 | 0.233 | 0.228 | 0.229 | 0.232 | 0.23 | 0.231
413.15 K, 3200 kPa | 0.313 | 0.271 | 0.255 | 0.239 | 0.233 | 0.234 | 0.237 | 0.235 | 0.236
433.15 K, 800 kPa | – | 0.223 | 0.208 | 0.196 | 0.195 | 0.194 | 0.194 | 0.191 | 0.194
433.15 K, 1600 kPa | 0.26 | 0.228 | 0.213 | 0.202 | 0.201 | 0.199 | 0.199 | 0.197 | 0.199
433.15 K, 2400 kPa | 0.267 | 0.233 | 0.219 | 0.208 | 0.206 | 0.205 | 0.204 | 0.202 | 0.204
433.15 K, 3200 kPa | 0.273 | 0.239 | 0.226 | 0.213 | 0.212 | 0.21 | 0.209 | 0.208 | 0.209
453.15 K, 800 kPa | 0.221 | 0.196 | 0.181 | 0.177 | 0.174 | 0.173 | 0.173 | 0.17 | 0.17
453.15 K, 1600 kPa | 0.227 | 0.201 | 0.186 | 0.183 | 0.18 | 0.179 | 0.178 | 0.176 | 0.175
453.15 K, 2400 kPa | 0.233 | 0.206 | 0.192 | 0.188 | 0.185 | 0.184 | 0.183 | 0.181 | 0.18
453.15 K, 3200 kPa | 0.24 | 0.211 | 0.198 | 0.194 | 0.191 | 0.189 | 0.188 | 0.187 | 0.184
473.15 K, 1600 kPa | 0.19 | 0.17 | 0.162 | 0.162 | 0.161 | 0.16 | 0.16 | 0.157 | 0.159
473.15 K, 2400 kPa | 0.196 | 0.175 | 0.168 | 0.167 | 0.166 | 0.165 | 0.164 | 0.162 | 0.164
473.15 K, 3200 kPa | 0.202 | 0.181 | 0.173 | 0.173 | 0.171 | 0.17 | 0.169 | 0.168 | 0.168
